These results are taken from patent US12570648B2, “6,7-dihydro-5H-pyrido[2,3-c]pyridazine derivatives and related compounds as Bcl-xL protein inhibitors and pro-apoptotic agents for treating cancer” (LES LABORATOIRES SERVIER, priority 2019, dated 2026).

Each structure is given as a SMILES string.

The test system of experiment [1] is MOLT-4 cells. Nature of the experiment: MOLT-4 cell viability using MTT assay. The note with it: 48 h exposure. The format is cell-based. How it is done: MTT colorimetric assay is based on the mitochondrial reduction of tetrazolium salt by living cells.
Cells were cultured at 37° C. in a humidified atmosphere containing 5% CO2. […] At the end of incubation time, 15 μL of MTT solution (5 mg/ml) were added per well and the cells were incubated for another 4 h. […] IC50s were calculated using standard four-parametric curve fitting.

Experiment [2] deals with His-His-(EK)-hsBCLXL(2-197)[N197C] (Homo sapiens (Human), UniProt Q07817, N197C). Nature of the experiment: Fluorescence quenching assay. It counts as binding. The following applies: 1 nM Cy5-labelled protein, 400 nM PUMA peptide, 2 hours at 23° C.; KI determined from IC50. An excerpt: Fluorescence quenching assay measures the change in fluorescence intensity of C-terminally Cy5-labelled BCL-xL protein, His-His-(EK)-hsBCLXL(2-197)[N197C] (UniProtKB®
His-His-(EK)-hsBCLXL(2-197)[N197C], sequence (Q07817 2-197 N197C): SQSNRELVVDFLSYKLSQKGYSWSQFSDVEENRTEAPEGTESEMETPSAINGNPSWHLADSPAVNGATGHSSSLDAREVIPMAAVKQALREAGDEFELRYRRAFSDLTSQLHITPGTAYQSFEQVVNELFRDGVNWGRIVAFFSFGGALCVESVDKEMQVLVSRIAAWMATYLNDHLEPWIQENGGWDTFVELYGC
which is linked in C-terminal region to the amino acid X which corresponds to a cysteine labelled on the sulfur with Sulfo-Cyanine5 from Lumiprobe GmbH catalogue number 13380, upon binding of a C-terminally labelled peptide derived from PUMA (UniProtKB® primary accession number Q9BXH1) having an aminoacid sequence (SEQ ID:04): [[…]] which is linked in C-terminal region to the amino acid X′ where X′ is cysteine labelled on the sulfur with TQ5WS from AAT Bioquest catalogue number 2079.
The addition of a compound which binds competitively to the same site as the peptide will result in an increase in the fluorescence intensity of the protein due to displacement of the fluorescence quencher.
An 11-point serial dilution of each compound was prepared in DMSO, the final buffer conditions were 10 mM 4-(2-hydroxyethyl)-1-piperazineethanesulfonic acid [HEPES], 150 mM NaCl, 0.05% Tween 20, pH 7.4 and 5% DMSO. The final protein concentration in the assay was 1 nM with the peptide present at 400 nM. The experiments were incubated for 2 hours at 23° C. before fluorescence intensity was measured on a Biotek SynergyNeo plate reader (Excitation 620 nm, emission 680 nm). […] The K1 values were determined from the IC50 values according to Cer et al, Nucleic Acids Res, 2009, Jul. 1; 37 (WebServer issue): W441-W445.

The molecule `Cc1c(Nc2nc3ccccc3s2)nnc2c1CCCN2c1ccc(-c2cnn(CC34CC5(C)CC(C)(C3)CC(OCCNCCOCCO)(C5)C4)c2C)c(C(=O)O)n1` [Example 136, 6-[3-(1,3-benzothiazol-2-ylamino)-4-methyl-6,7-dihydro-5H-pyrido[2,3-c]pyridazin-8-yl]-3-[1-[[3-[2-[2-(2-hydroxyethoxy)ethylamino]ethoxy]-5,7-dimethyl-1-adamantyl]methyl]-5-methyl-pyrazol-4-yl]pyridine-2-carboxylic acid] gave a half-maximal inhibitory concentration (IC50) in experiment [1] (Homo sapiens, MOLT-4, 48 h) of 1.25 nM. Further, in experiment [2], the Ki was 0.0014 nM.

In experiment [1] (Homo sapiens, MOLT-4, 48 h), `Cc1c(Nc2nc3ccccc3s2)nnc2c1CCCN2c1nc(C(=O)O)c(CCCOc2ccc(C#CC3(N(C)C)CCCCC3)cc2F)s1` [Example 84, 2-[3-(1,3-Benzothiazol-2-ylamino)-4-methyl-6,7-dihydro-5H-pyrido[2,3-c]pyridazin-8-yl]-5-[3-[4-[2-[1-(dimethylamino)cyclohexyl]ethynyl]-2-fluoro-phenoxy]propyl]thiazole-4-carboxylic acid] came in with an IC50 of 1.83 nM. Also, in experiment [2], the inhibitory constant (Ki) was 0.053 nM.

In experiment [1] (Homo sapiens, MOLT-4, 48 h), `Cc1c(Nc2nc3ccccc3s2)nnc2c1CCCN2c1nc(C(=O)O)c(CCCOc2ccc(C#CCNCCN(C)C)cc2F)s1` [Example 76, 2-[3-(1,3-Benzothiazol-2-ylamino)-4-methyl-6,7-dihydro-5H-pyrido[2,3-c]pyridazin-8-yl]-5-[3-[4-[3-[2-(dimethylamino)ethylamino]prop-1-ynyl]-2-fluoro-phenoxy]propyl]thiazole-4-carboxylic acid] displayed a 50% inhibitory concentration (IC50) of 0.74 nM. Also, in experiment [2], the inhibitory constant (Ki) came to 0.0018 nM.

`Cc1c(Nc2nc3ccccc3s2)nnc2c1CCCN2c1ccc(-c2cnn(CC34CC5(C)CC(C)(CC(CCCN6CCCC6)(C5)C3)C4)c2C)c(C(=O)O)n1` [Example 166, 6-[3-(1,3-benzothiazol-2-ylamino)-4-methyl-6,7-dihydro-5H-pyrido[2,3-c]pyridazin-8-yl]-3-[1-[[3,5-dimethyl-7-(3-pyrrolidin-1-ylpropyl)-1-adamantyl]methyl]-5-methyl-pyrazol-4-yl]pyridine-2-carboxylic acid]: the half-inhibitory concentration (IC50) in experiment [1] (Homo sapiens, MOLT-4, 48 h) amounted to 0.429 nM. In addition, the inhibition constant Ki in experiment [2] came out at 0.0027 nM.

Molecule `Cc1c(Nc2nc3ccccc3s2)nnc2c1CCCN2c1ccc(-c2cnn(CC34CC5(C)CC(C)(C3)CC(OCCNCC[C@@H](O)CO)(C5)C4)c2C)c(C(=O)O)n1` [Example 93, 6-{3-[(1,3-benzothiazol-2-yl)amino]-4-methyl-6,7-dihydropyrido[2,3-c]pyridazin-8(5H)-yl}-3-(1-{[3-(2-{[(3R)-3,4-dihydroxybutyl]amino}ethoxy)-5,7-dimethyladamantan-1-yl]methyl}-5-methyl-1H-pyrazol-4-yl)pyridine-2-carboxylic acid] returned a 50% inhibitory concentration (IC50) in experiment [1] of 14.2 nM. Moreover, in experiment [2], the Ki was 0.0024 nM.

As for `CNCC#Cc1ccc(OCCCc2sc(N3CCCc4c3nnc(Nc3nc5ccccc5s3)c4C)nc2C(=O)O)cc1` [Example 80, 2-[3-(1,3-Benzothiazol-2-ylamino)-4-methyl-6,7-dihydro-5H-pyrido[2,3-c]pyridazin-8-yl]-5-[3-[4-[3-(methylamino)prop-1-ynyl]phenoxy]propyl]thiazole-4-carboxylic acid], in experiment [1] (Homo sapiens, MOLT-4, 48 h), the IC50 worked out at 0.575 nM. Besides, the Ki in experiment [2] was 0.0065 nM.

Regarding `Cc1c(Nc2nc3ccccc3s2)nnc2c1CCCN2c1ccc(-c2cnn(CC34CC5(C)CC(C)(C3)CC(OCCN(CCO)CCO)(C5)C4)c2C)c(C(=O)O)n1` [Example 134, 6-[3-(1,3-benzothiazol-2-ylamino)-4-methyl-6,7-dihydro-5H-pyrido[2,3-c]pyridazin-8-yl]-3-[1-[[3-[2-[bis(2-hydroxyethyl)amino]ethoxy]-5,7-dimethyl-1-adamantyl]methyl]-5-methyl-pyrazol-4-yl]pyridine-2-carboxylic acid], in experiment [1] (Homo sapiens, MOLT-4, 48 h), the concentration for half-maximal inhibition (IC50) came out at 1.57 nM. In addition, in experiment [2], the inhibition constant (Ki) is 0.0028 nM.

As to `Cc1c(Nc2nc3cc(O)ccc3s2)nnc2c1CCCN2c1ccc(-c2cnn(CC34CC5(C)CC(C)(C3)CC(OCCN3CCCC3)(C5)C4)c2C)c(C(=O)O)n1` [Example 152, 3-[1-[[3,5-dimethyl-7-(2-pyrrolidin-1-ylethoxy)-1-adamantyl]methyl]-5-methyl-pyrazol-4-yl]-6-[3-[(5-hydroxy-1,3-benzothiazol-2-yl)amino]-4-methyl-6,7-dihydro-5H-pyrido[2,3-c]pyridazin-8-yl]pyridine-2-carboxylic acid], in experiment [2], the inhibition constant (Ki) came out at 0.0017 nM.

Take `Cc1c(Nc2nc3ccccc3s2)nnc2c1CCCN2c1ccc(-c2cnn(CC34CC5CC(C3)CC(OCCNCC[C@H](O)CO)(C5)C4)c2C)c(C(=O)O)n1` [Example 160, 6-[3-(1,3-benzothiazol-2-ylamino)-4-methyl-6,7-dihydro-5H-pyrido[2,3-c]pyridazin-8-yl]-3-[1-[[3-[2-[[(3S)-3,4-dihydroxybutyl]amino]ethoxy]-1-adamantyl]methyl]-5-methyl-pyrazol-4-yl]pyridine-2-carboxylic acid]: in experiment [1] (Homo sapiens, MOLT-4, 48 h), the IC50 was above 100 nM.

As to `Cc1c(Nc2nc3ccccc3s2)nnc2c1CCCN2c1ccc(-c2cnn(CC34CC5(C)CC(C)(C3)CC(OCCNCCCO)(C5)C4)c2C)c(C(=O)O)n1` [Example 138, 6-[3-(1,3-benzothiazol-2-ylamino)-4-methyl-6,7-dihydro-5H-pyrido[2,3-c]pyridazin-8-yl]-3-[1-[[3-[2-(3-hydroxypropylamino)ethoxy]-5,7-dimethyl-1-adamantyl]methyl]-5-methyl-pyrazol-4-yl]pyridine-2-carboxylic acid], the 50% inhibitory concentration (IC50) in experiment [1] (Homo sapiens, MOLT-4, 48 h) worked out at 1.01 nM.

Molecule `Cc1c(Nc2nc3ccccc3s2)nnc2c1CCCN2c1ccc(-c2cnn(CC34CC5CC(C3)CC(OCCN(C)C)(C5)C4)c2C)c(C(=O)O)n1` [Example 154, 6-[3-(1,3-benzothiazol-2-ylamino)-4-methyl-6,7-dihydro-5H-pyrido[2,3-c]pyridazin-8-yl]-3-[1-[[3-[2-(dimethylamino)ethoxy]-1-adamantyl]methyl]-5-methyl-pyrazol-4-yl]pyridine-2-carboxylic acid] gave a concentration for half-maximal inhibition (IC50) in experiment [1] (Homo sapiens, MOLT-4, 48 h) of 0.449 nM.

For `Cc1c(Nc2nc3ccccc3s2)nnc2c1CCCN2c1ccc(-c2cnn(CC34CC5CC(C3)CC(OCCN3CCCC3)(C5)C4)c2C)c(C(=O)O)n1` [Example 155, 6-[3-(1,3-benzothiazol-2-ylamino)-4-methyl-6,7-dihydro-5H-pyrido[2,3-c]pyridazin-8-yl]-3-[5-methyl-1-[[3-(2-pyrrolidin-1-ylethoxy)-1-adamantyl]methyl]pyrazol-4-yl]pyridine-2-carboxylic acid], 0.543 nM corresponded to half-maximal inhibition in experiment [1] (Homo sapiens, MOLT-4, 48 h) (IC50). The IC50 values of the last two molecules are within 1.5-fold of each other.

`CNCCCc1ccc(OCCCc2sc(N3CCCc4c3nnc(Nc3nc5ccccc5s3)c4C)nc2C(=O)O)c(F)c1` [Example 34, 2-{3-[(1,3-Benzothiazol-2-yl)amino]-4-methyl-5H,6H,7H,8H-pyrido[2,3-c]pyridazin-8-yl}-5-(3-{2-fluoro-4-[3-(methylamino)propyl]phenoxy}propyl)-1,3-thiazole-4-carboxylic acid]: the inhibitory constant (Ki) in experiment [2] is 0.0019 nM.

As for `Cc1c(Nc2nc3ccccc3s2)nnc2c1CCCN2c1nc(C(=O)O)c(CCCOc2cc3c(cc2F)CN(C)CC3)s1` [Example 74, 2-{3-[(1,3-Benzothiazol-2-yl)amino]-4-methyl-5H,6H,7H,8H-pyrido[2,3-c]pyridazin-8-yl}-5-{3-[(7-fluoro-2-methyl-1,2,3,4-tetrahydroisoquinolin-6-yl)oxy]propyl}-1,3-thiazole-4-carboxylic acid], the Ki in experiment [2] was 0.01 nM.

In turn, `Cc1c(Nc2nc3ccccc3s2)nnc2c1CCCN2c1ccc(-c2cnn(CC34CC5(C)CC(C)(C3)CC(OCCN(CCCO)CCCO)(C5)C4)c2C)c(C(=O)O)n1` [Example 137, 6-[3-(1,3-benzothiazol-2-ylamino)-4-methyl-6,7-dihydro-5H-pyrido[2,3-c]pyridazin-8-yl]-3-[1-[[3-[2-[bis(3-hydroxypropyl)amino]ethoxy]-5,7-dimethyl-1-adamantyl]methyl]-5-methyl-pyrazol-4-yl]pyridine-2-carboxylic acid] registered an IC50 in experiment [1] (Homo sapiens, MOLT-4, 48 h) of 5.78 nM.

Regarding `Cc1c(Nc2nc3ccccc3s2)nnc2c1CCCN2c1nc(C(=O)O)c(CCCOc2ccc(C#CCN(CC(C)C)CC(C)C)cc2F)s1` [Example 87, 2-[3-(1,3-Benzothiazol-2-ylamino)-4-methyl-6,7-dihydro-5H-pyrido[2,3-c]pyridazin-8-yl]-5-[3-[4-[3-(diisobutylamino)prop-1-ynyl]-2-fluoro-phenoxy]propyl]thiazole-4-carboxylic acid], the inhibitory constant (Ki) in experiment [2] was determined as 0.044 nM.

`COc1ccc2sc(Nc3nnc4c(c3C)CCCN4c3ccc(-c4cnn(CC56CC7(C)CC(C)(C5)CC(OCCN5CCCC5)(C7)C6)c4C)c(C(=O)O)n3)nc2c1` [Example 180, 3-[1-[[3,5-dimethyl-7-(2-pyrrolidin-1-ylethoxy)-1-adamantyl]methyl]-5-methyl-pyrazol-4-yl]-6-[3-[(5-methoxy-1,3-benzothiazol-2-yl)amino]-4-methyl-6,7-dihydro-5H-pyrido[2,3-c]pyridazin-8-yl]pyridine-2-carboxylic acid] returned an IC50 in experiment [1] (Homo sapiens, MOLT-4, 48 h) of 0.13 nM.
